Assay results taken from publication PMC5839409, “Targeting intracellular B2 receptors using novel cell-penetrating antagonists to arrest growth and induce apoptosis in human triple-negative breast cancer” (Oncotarget, 2018).

What was measured:
MDA-MB-231 cells [1] = experiment: cDNA SuperArray Human Signal Transduction Pathway Finder analysis; assay type: cell-based; conditions: 10 μM / 3h, relative to untreated controls
Text: cDNA SuperArray analysis manufacturer ’s instructions (SuperArray Bioscience). For cDNA microarray analysis, equal amounts of cRNA (3
The GEArray Q-series array of Human Signal µg) were biotinylated, then the probes were hybridized Transduction Pathway Finder (catalog OHS-014; onto the membranes containing specific genes for several SuperArray Bioscience) was used to quantify the transduction pathways. After extensive washing, specific expression of 113 genes representative of 18 signal hybridization onto the membranes was detected by transduction pathways. […] A […]
cells were incubated or not with FR173657 (10 µM) in fold change cutoff of ≥1.5 as compared to control cells DMEM for 3 hours at 37°C. At the end of treatments, cells was set to identify regulated genes. were collected, lysed and total RNA was purified using an ArrayGrade Total RNA Isolation kit according to the Supplementary Table 1: Marked gene expression changes in FR173657-treated MDA-MB-231 cells relative to untreated controls
Description GenBank acc. Symbol Fold change
NLR family, apoptosis inhibitory protein NM_004536 NAIP 1,50
Cyclin-dependent kinase inhibitor 1B (p27, Kip1) NM_004064 CDKN1B 1,70
Cyclin-dependent kinase inhibitor 2B (p15, inhibits CDK4) NM_004936 CDKN2B 1,80 Cyclin-dependent kinase inhibitor 2C (p18, inhibits CDK4) NM_078626 CDKN2C 2,20 Caudal type homeobox transcription factor 1 NM_001804 CDX1 1,80
CCAAT/enhancer binding protein (C/EBP), beta NM_005194 CEBPB 1,70 […]
Platelet/endothelial cell adhesion molecule (CD31 antigen) NM_000442 PECAM1 3,90 Nitric oxide synthase 2A (inducible, hepatocytes) NM_000625 NOS2A –1,50 […]
Overall, the data generated from the transcriptional profiling study are, in general, in good agreement with the strong anticancer activity of FR173657 observed in MDA-MB-231 cells.

MDA-MB-231 cells [2] = experiment: Annexin V/PI apoptosis and beta-galactosidase senescence assays; assay type: cell-based, human; conditions: Annexin V and active caspase-3 positivity 24h; β-galactosidase 72h
Procedure: The effect of B2RAs on cellular senescence was assessed using the Senescence β-Galactosidase Staining Kit (Cell Signaling). MDA-MB-231 cells were plated at 500 000 cells/well in 6-well plates, and serum-starved right before the beginning of treatments. Cells were treated with and without the B2RAs at the indicated concentrations for 72 h. At the end of treatment, surviving cells were fixed with 2% formaldehyde, 0.2% glutaraldehyde for 15 min at room temperature. Fixed cells were then washed and stained with fresh senescence-associated β-galactosidase stain solution (sodium phosphate buffer, pH 6.0, containing 1mg of X-gal (5-bromo-4-chloro-3-indolyl-β-d-galactopyranoside)/ml 40 mM citric acid, 5 mM potassium ferrocyanide, 5 mM potassium ferricyanide, 150 mM NaCl, 2 mM MgCl2) at 37°C. Staining was detected by light microscopy. As a positive control for senescence, we serum starved porcine cerebral microvascular endothelial cells (pCMVEC) (kindly provided by S Chemtob) for 48 h.
MDA-MB-231 and COS-1 cells were plated at 500,000/well in 6-well plates containing medium (10% FBS/DMEM), and allowed to adhere for about 18 h. On the next day, cells were serum-starved and then treated with and without the B2RAs at the indicated concentrations for 24 h. To assess induction of apoptosis due to treatment, we used the Annexin-V-FLUOS Staining kit (Roche) according to manufacturer’s specifications. Briefly, at the end of treatments, cells were harvested, rinsed and incubated in 100 µl of Annexin-V-FLUOS labeling solution (containing 2 µl of Annexin-V-Fluos reagent and 1 µl of PI (15 µg/ml)) for 15 min at room temperature. Cells were analyzed on a FACSCanto II flow cytometer (BD Biosciences). Early stage apoptosis was measured using annexin V-Fluos (RocheMolecular Biochemicals) in conjunction with PI (Sigma) to distinguish among early apoptosis and late apoptosis/necrosis. Bar diagram showing the distribution of early, late/necrotic cell populations.

MDA-MB-231 cells [3] = experiment: PI staining cell cycle analysis by flow cytometry; assay type: cell-based, human; conditions: 24 h treatment; HOE 140 up to 100 μM
Procedure: MDA-MB-231 were plated at 500,000/plate in 10 cm plates containing medium (10% FBS/DMEM), and allowed to adhere for about 18 h. Thereafter, cells were serum-starved and treated with and without the B2RAs at the indicated concentrations for 24 h. At the end of treatments, cells were harvested, rinsed and fixed with ice cold ethanol 95%, for 2 h at 4°C. Fixed cells were rehydrated with 800 µl PBS for 30 min, and then washed again with PBS to remove all traces of ethanol. Cells were treated with RNase for 30 min prior to staining. PI was added to cell suspension at a concentration of 15 µg/ml and incubated overnight at 4°C. PI staining was assessed by flow cytometry using a FACSCanto II flow cytometer (BD Biosciences).

CC(=O)Nc1ccc(/C=C/C(=O)NCC(=O)N(C)c2ccc(Cl)c(COc3cccc4ccc(C)nc34)c2Cl)cn1 [FR 173657]
Fold change BMP4 gene expression (MDA-MB-231 cells [1]): 1,50 fold | Fold change CCL20 gene expression (MDA-MB-231 cells [1]): 1,50 fold | Fold change CDKN1B (p27, Kip1) gene expression (MDA-MB-231 cells [1]): 1,70 fold | Fold change CDKN2B gene expression (MDA-MB-231 cells [1]): 1,80 fold | Fold change CDKN2C gene expression (MDA-MB-231 cells [1]): 2,20 fold | Fold change CDX1 gene expression (MDA-MB-231 cells [1]): 1,80 fold | Fold change CEBPB gene expression (MDA-MB-231 cells [1]): 1,70 fold | Fold change CTSD gene expression (MDA-MB-231 cells [1]): 1,60 fold | Fold change CXCL9 gene expression (MDA-MB-231 cells [1]): 1,70 fold | Fold change EGR1 gene expression (MDA-MB-231 cells [1]): 1,60 fold | Fold change HOXB1 gene expression (MDA-MB-231 cells [1]): 1,60 fold | Fold change MMP10 gene expression (MDA-MB-231 cells [1]): 3,50 fold | Fold change NAIP gene expression (MDA-MB-231 cells [1]): 1,50 fold | Fold change NOS2A gene expression (MDA-MB-231 cells [1]): –1,50 fold | Fold change PECAM1 gene expression (MDA-MB-231 cells [1]): 3,90 fold | Fold change TFRC gene expression (MDA-MB-231 cells [1]): –1,50 fold | induction of apoptosis / senescence (MDA-MB-231 cells [2]): underwent apoptosis, but not senescence | cell cycle distribution (MDA-MB-231 cells [3]): tend to induce G0/G1 cell cycle arrest
